Reference: ChEMBL document CHEMBL1157622, “Synthesis and antiproliferative evaluation of certain indolo[3,2-c]quinoline derivatives” (Bioorg Med Chem, 2010)
Calls of active or inactive are those of the source. No cut-off for these calls is given here.

Columns and labels:
A549 = experiment: Antiproliferative activity against human A549 cells by MTT assay; format: functional, cell-based
HeLa [1] = experiment: Antiproliferative activity against human HeLa cells by MTT assay; format: functional, cell-based
PC-3 [2] = experiment: Antiproliferative activity against human PC3 cells by MTT assay; format: functional, cell-based
[3] = Antiproliferative activity against human SKHep cells by MTT assay; format: functional, cell-based
Detroit 551 = experiment: Antiproliferative activity against human Detroit 551 cells by MTT assay; format: cell-based
PC-3 [4] = experiment: Cell cycle arrest in human PC3 cells by accumulation at subG1 phase at 0.1 uM after 48 hrs by propidium iodide staining-based flow cytometry (Rvb=0.8%); format: functional
PC-3 [5] = experiment: Cell cycle arrest in human PC3 cells by accumulation at G2/M phase at 0.3 uM after 48 hrs by propidium iodide staining-based flow cytometry (Rvb=19.4%); format: functional
PC-3 [6] = experiment: Induction of apoptosis in human PC3 cells assessed as caspase 3 activation at 0.1 uM after 48 hrs by Western blot; format: functional, cell-based
[7] = target: DNA topoisomerase 2-alpha (Homo sapiens) (UniProt P11388); experiment: Inhibition of DNA topoisomerase 2-mediated unwinding of supercoiled pBR322 DNA
PC-3 [8] = experiment: Cell cycle arrest in human PC3 cells by accumulation at subG1 phase at 0.3 uM after 48 hrs by propidium iodide staining-based flow cytometry (Rvb=0.8%); format: functional
[9] = target: T1, DNA topoisomerase 1 (Homo sapiens) (UniProt P11387); experiment: Inhibition of topoisomerase 1-mediated unwinding of supercoiled plasmid DNA at 10 uM
T1 sequence (whole entry): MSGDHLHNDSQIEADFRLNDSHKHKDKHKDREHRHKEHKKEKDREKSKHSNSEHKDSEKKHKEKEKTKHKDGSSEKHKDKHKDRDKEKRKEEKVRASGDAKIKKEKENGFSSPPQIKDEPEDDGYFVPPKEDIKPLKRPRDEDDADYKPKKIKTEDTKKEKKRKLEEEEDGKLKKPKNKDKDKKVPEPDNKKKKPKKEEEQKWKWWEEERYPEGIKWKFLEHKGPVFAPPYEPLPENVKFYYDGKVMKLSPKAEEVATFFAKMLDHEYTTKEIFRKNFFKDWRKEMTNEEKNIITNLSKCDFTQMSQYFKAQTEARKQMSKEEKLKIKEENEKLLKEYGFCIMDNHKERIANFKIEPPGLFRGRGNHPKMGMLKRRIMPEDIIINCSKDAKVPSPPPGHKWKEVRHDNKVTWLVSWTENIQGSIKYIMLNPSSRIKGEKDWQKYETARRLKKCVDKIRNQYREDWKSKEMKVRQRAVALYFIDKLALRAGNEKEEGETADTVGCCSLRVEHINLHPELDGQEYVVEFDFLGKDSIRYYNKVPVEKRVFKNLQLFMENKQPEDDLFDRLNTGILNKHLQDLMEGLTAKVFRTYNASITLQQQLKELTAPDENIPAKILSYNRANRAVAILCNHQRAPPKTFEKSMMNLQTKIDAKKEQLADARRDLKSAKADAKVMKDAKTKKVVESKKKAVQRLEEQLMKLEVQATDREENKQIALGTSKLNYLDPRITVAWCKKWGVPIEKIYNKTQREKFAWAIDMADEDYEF

PC-3 [10] = experiment: Cell cycle arrest in human PC3 cells by accumulation at S phase at 0.1 uM after 48 hrs by propidium iodide staining-based flow cytometry (Rvb=11.2%); format: functional
PC-3 [11] = experiment: Cell cycle arrest in human PC3 cells by accumulation at S phase at 0.3 uM after 48 hrs by propidium iodide staining-based flow cytometry (Rvb=11.2%); format: functional
HeLa [12] = experiment: Antiproliferative activity against human HeLa cells assessed as reduction in colony number after 48 hrs by clonogenic assay; format: functional, cell-based
PC-3 [13] = experiment: Induction of apoptosis in human PC3 cells assessed as gammaH2AX phosphorylation mediated DNA damage at 0.1 uM after 48 hrs by Western blot; format: functional, cell-based
HeLa [14] = experiment: Antiproliferative activity against human HeLa cells at 0.3 to 1.0 uM after 48 hrs by MTT assay; format: functional
[15] = target: T1, DNA topoisomerase 1 (Homo sapiens); experiment: Inhibition of topoisomerase 1-mediated unwinding of supercoiled plasmid DNA at 0.1 to 1.0 uM
PC-3 [16] = experiment: Cell cycle arrest in human PC3 cells by accumulation at G1 phase at 0.3 uM after 48 hrs by propidium iodide staining-based flow cytometry (Rvb=68.4%); format: functional
PC-3 [17] = experiment: Induction of apoptosis in human PC3 cells assessed as PARP cleavage at 0.1 uM after 48 hrs by Western blot; format: functional, cell-based
HeLa [18] = experiment: Antiproliferative activity against human HeLa cells assessed as reduction in colony size after 48 hrs by clonogenic assay; format: functional, cell-based
PC-3 [19] = experiment: Cell cycle arrest in human PC3 cells by accumulation at G2/M phase at 0.1 uM after 48 hrs by propidium iodide staining-based flow cytometry (Rvb=19.4%); format: functional
PC-3 [20] = experiment: Cell cycle arrest in human PC3 cells by accumulation at G1 phase at 0.1 uM after 48 hrs by propidium iodide staining-based flow cytometry (Rvb=68.4%); format: functional

DNA topoisomerase 2-alpha (Homo sapiens), sequence (P11388 whole entry): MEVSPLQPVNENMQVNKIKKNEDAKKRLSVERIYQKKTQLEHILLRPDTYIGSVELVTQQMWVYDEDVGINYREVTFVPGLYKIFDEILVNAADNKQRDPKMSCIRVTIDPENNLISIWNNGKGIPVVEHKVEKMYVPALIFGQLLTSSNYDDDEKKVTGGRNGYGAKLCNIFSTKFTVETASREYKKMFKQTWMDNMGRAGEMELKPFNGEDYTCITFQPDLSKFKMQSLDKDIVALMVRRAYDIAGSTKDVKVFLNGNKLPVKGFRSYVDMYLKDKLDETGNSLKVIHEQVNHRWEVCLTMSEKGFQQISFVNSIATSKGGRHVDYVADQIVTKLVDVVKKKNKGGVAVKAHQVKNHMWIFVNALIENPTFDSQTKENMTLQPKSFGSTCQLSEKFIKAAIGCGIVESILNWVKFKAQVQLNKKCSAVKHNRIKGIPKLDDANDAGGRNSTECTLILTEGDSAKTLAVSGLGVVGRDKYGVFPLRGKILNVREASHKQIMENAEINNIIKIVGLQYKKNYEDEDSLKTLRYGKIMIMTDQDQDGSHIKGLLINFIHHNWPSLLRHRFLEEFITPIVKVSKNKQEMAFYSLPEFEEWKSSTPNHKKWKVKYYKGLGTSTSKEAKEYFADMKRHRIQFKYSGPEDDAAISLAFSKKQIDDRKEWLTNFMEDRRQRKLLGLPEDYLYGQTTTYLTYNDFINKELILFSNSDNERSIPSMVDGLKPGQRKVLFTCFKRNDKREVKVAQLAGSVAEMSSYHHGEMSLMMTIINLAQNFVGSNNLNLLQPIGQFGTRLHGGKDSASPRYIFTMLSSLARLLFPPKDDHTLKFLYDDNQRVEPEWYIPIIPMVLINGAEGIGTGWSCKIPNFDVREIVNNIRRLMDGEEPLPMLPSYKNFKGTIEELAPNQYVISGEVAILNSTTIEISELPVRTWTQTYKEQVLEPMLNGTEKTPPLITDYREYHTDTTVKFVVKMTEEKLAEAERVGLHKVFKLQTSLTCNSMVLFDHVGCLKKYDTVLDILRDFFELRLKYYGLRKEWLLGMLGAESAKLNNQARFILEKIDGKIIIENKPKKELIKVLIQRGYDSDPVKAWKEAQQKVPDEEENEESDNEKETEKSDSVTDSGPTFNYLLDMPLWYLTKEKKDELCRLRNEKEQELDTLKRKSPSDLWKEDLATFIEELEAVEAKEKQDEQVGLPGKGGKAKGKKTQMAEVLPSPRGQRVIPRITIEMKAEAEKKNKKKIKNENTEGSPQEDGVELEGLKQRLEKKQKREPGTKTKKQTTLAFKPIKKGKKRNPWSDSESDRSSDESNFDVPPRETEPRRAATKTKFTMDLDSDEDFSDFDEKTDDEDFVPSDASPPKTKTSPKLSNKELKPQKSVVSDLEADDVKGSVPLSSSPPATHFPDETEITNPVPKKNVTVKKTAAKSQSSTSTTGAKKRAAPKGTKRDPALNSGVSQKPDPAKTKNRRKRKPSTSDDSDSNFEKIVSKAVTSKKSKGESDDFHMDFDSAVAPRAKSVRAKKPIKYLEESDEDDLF

IC50 (A549) | IC50 (HeLa [1]) | IC50 (PC-3 [2]) | SMILES | IC50 [3] | IC50 (Detroit 551) | also measured
6730 nM | 4320 nM | 6.84 µM | Fc1ccc2nc(NCCN3CCOCC3)c3c4ccccc4[nH]c3c2c1 | 5290 nM | – | –
530 nM | 680 nM | 1.77 µM | c1ccc2c(c1)nc(NCCN1CCNCC1)c1c3ccccc3[nH]c21 | 380 nM | 2600 nM | –
– | 330 nM | 1.76 µM | COc1cccc2c1C(=O)c1c(O)c3c(c(O)c1C2=O)C[C@@](O)(C(=O)CO)C[C@@H]3O[C@H]1C[C@H](N)[C@H](O)[C@H](C)O1 [DOXORUBICIN] | – | – | –
9190 nM | 1330 nM | 6.32 µM | Oc1ccc(CCNc2nc3ccc(F)cc3c3[nH]c4ccccc4c23)cc1 | 7780 nM | – | –
5390 nM | 520 nM | 8.98 µM | COc1ccc(CCNc2nc3ccccc3c3[nH]c4ccccc4c23)cc1OC | 5830 nM | 19300 nM | –
2230 nM | 2670 nM | 6.25 µM | NCCCCCCCNc1nc2ccccc2c2[nH]c3ccccc3c12 | 2540 nM | – | –
430 nM | 890 nM | 2.01 µM | CN(CCCNc1nc2ccccc2c2[nH]c3ccccc3c12)CCCNc1nc2ccccc2c2[nH]c3ccccc3c12 | 280 nM | 2140 nM | –
> 30000 nM | > 30000 nM | > 30 µM | c1ccc(Nc2nc3ccccc3c3[nH]c4ccccc4c23)cc1 | > 30000 nM | – | –
500 nM | 850 nM | 3.65 µM | CN(C)CCCNc1nc2ccccc2c2[nH]c3ccccc3c12 | 790 nM | 2180 nM | –
830 nM | 610 nM | 5.79 µM | CN(C)CCNc1nc2ccccc2c2[nH]c3ccccc3c12 | 1600 nM | 2210 nM | –
500 nM | 310 nM | 0.59 µM | c1ccc2c(c1)nc(NCCCCCCNc1nc3ccccc3c3[nH]c4ccccc4c13)c1c3ccccc3[nH]c21 | 1470 nM | – | –
5740 nM | 590 nM | 8.94 µM | Oc1ccc(CCNc2nc3ccccc3c3[nH]c4ccccc4c23)cc1 | 5240 nM | 4300 nM | –
110 nM | 68 nM | 0.08 µM | Cl.c1ccc2c(c1)nc(NCCCNCCCNc1nc3ccccc3c3[nH]c4ccccc4c13)c1c3ccccc3[nH]c21 | 90 nM | 1980 nM | Activity (PC-3 [4]): 30.6%; Activity (PC-3 [5]): 8.7%; Activity (PC-3 [6]): Active; inhibition [7]: Dose-dependent effect; Activity (PC-3 [8]): 72.6%; inhibition [9]: Active; Activity (PC-3 [10]): 4.5%; Activity (PC-3 [11]): 2.7%; Activity (HeLa [12]): Dose-dependent effect; Activity (PC-3 [13]): Active; inhibition (INH) (HeLa [14]): 95%; inhibition [15]: inactive; Activity (PC-3 [16]): 15.8%; Activity (PC-3 [17]): Active; Activity (HeLa [18]): Dose-dependent effect; Activity (PC-3 [19]): 24.1%; Activity (PC-3 [20]): 40.3%
84 nM | 72 nM | 2.55 µM | NCCCCCCNc1nc2ccccc2c2[nH]c3ccccc3c12 | 2510 nM | – | –
10400 nM | 10300 nM | 18.4 µM | Oc1cccc(Nc2nc3ccccc3c3[nH]c4ccccc4c23)c1 | 7230 nM | 42500 nM | –
1030 nM | 650 nM | 7.98 µM | NCCNCCNc1nc2ccccc2c2[nH]c3ccccc3c12 | 2170 nM | 3880 nM | –
3870 nM | 1540 nM | 5.43 µM | Oc1ccc(Nc2nc3ccccc3c3[nH]c4ccccc4c23)cc1 | 5700 nM | 25400 nM | –
700 nM | 740 nM | 5.81 µM | OCCNCCNc1nc2ccccc2c2[nH]c3ccccc3c12 | 720 nM | 1740 nM | –
10300 nM | 3770 nM | 15.2 µM | Oc1ccc(CCNc2nc3ccccc3c3[nH]c4ccccc4c23)cc1O | 6660 nM | – | –
930 nM | 1490 nM | 6.51 µM | OCCNCCNc1nc2ccc(F)cc2c2[nH]c3ccccc3c12 | 1310 nM | – | –
10900 nM | 11400 nM | 21 µM | COc1ccc(Nc2nc3ccccc3c3[nH]c4ccccc4c23)cc1 | 7780 nM | – | –
990 nM | 620 nM | 5.65 µM | OCCNc1nc2ccccc2c2[nH]c3ccccc3c12 | 1020 nM | 3150 nM | –
1130 nM | 870 nM | 2.84 µM | c1ccc2c(c1)nc(NCCN1CCOCC1)c1c3ccccc3[nH]c21 | 1290 nM | – | –
17700 nM | 4690 nM | > 30 µM | Oc1ccccc1Nc1nc2ccccc2c2[nH]c3ccccc3c12 | 21900 nM | – | –
6200 nM | 5350 nM | 12.3 µM | Fc1ccc2nc(NCCN3CCNCC3)c3c4ccccc4[nH]c3c2c1 | 2670 nM | – | –
1190 nM | 1190 nM | 6.56 µM | c1ccc2c(c1)nc(NCCCCCCCNc1nc3ccccc3c3[nH]c4ccccc4c13)c1c3ccccc3[nH]c21 | 1610 nM | – | –
